This note sets out measurements from ChEMBL document CHEMBL5537135, “Novel antimicrobial peptides modified with fluorinated sulfono-γ-AA having high stability and targeting multidrug-resistant bacteria infections” (Eur J Med Chem, 2024).

Data set [1] can be described thus: Toxicity in mouse assessed as sluggish behavior at 20 mg/kg, ip measured for 30 to 60 mins. The conditions noted are these: in vivo, time 30-60 min. It is filed as organism-based.
The test system of data set [2] is Salmonella typhimurium. The data set is described as follows: Antimicrobial activity against Salmonella typhimurium ATCC 14028 assessed as inhibition of visible bacterial growth incubated for 18 hrs by broth-dilution method. The class given is functional. The conditions noted are these: Salmonella enterica subsp. enterica serovar Typhimurium.
Data set [3] has as its system Pseudomonas aeruginosa. The data set is described as follows: Antimicrobial activity against multidrug-resistant Pseudomonas aeruginosa 073 assessed as inhibition of visible bacterial growth incubated for 18 hrs by broth-dilution method. It is filed as functional.
Data set [4] relates to Staphylococcus aureus. The data set is described as follows: Antimicrobial activity against methicillin-resistant Staphylococcus aureus 1 assessed as inhibition of visible bacterial growth incubated for 18 hrs by broth-dilution method. The class given is functional.
In data set [5] the test system is Pseudomonas aeruginosa. The data set is described as follows: Antimicrobial activity against multidrug-resistant Pseudomonas aeruginosa 125 assessed as inhibition of visible bacterial growth incubated for 18 hrs by broth-dilution method. The class given is functional.
For data set [6], the system named is Staphylococcus aureus. The data set is described as follows: Antimicrobial activity against methicillin-resistant Staphylococcus aureus 4 assessed as inhibition of visible bacterial growth incubated for 18 hrs by broth-dilution method. It is filed as functional.
Data set [7] deals with Bacillus subtilis. The data set is described as follows: Antimicrobial activity against Bacillus subtilis ATCC 23857 assessed as inhibition of visible bacterial growth incubated for 18 hrs by broth-dilution method. The class given is functional.
The test system of data set [8] is Pseudomonas aeruginosa. The data set is described as follows: Antimicrobial activity against multidrug-resistant Pseudomonas aeruginosa 124 assessed as inhibition of visible bacterial growth incubated for 18 hrs by broth-dilution method. It is filed as functional.
Data set [9] relates to Pseudomonas aeruginosa. The data set is described as follows: Antimicrobial activity against multidrug-resistant Pseudomonas aeruginosa 119 assessed as inhibition of visible bacterial growth incubated for 18 hrs by broth-dilution method. It is filed as functional.
Data set [10] has as its system Pseudomonas aeruginosa. The data set is described as follows: Antibacterial activity against Pseudomonas aeruginosa ATCC 27853 infected in C57BL/6 mouse pneumonia model assessed as log reduction in bacterial load in lung at 5 mg/kg, ip administered for 1 to 48 hrs and measured after 3 days. The class given is functional. The conditions noted are these: time 1-120 hrs.

Data set [11] has as its system Acinetobacter baumannii. The data set is described as follows: Antimicrobial activity against Acinetobacter baumannii ATCC 19606 assessed as inhibition of visible bacterial growth incubated for 18 hrs by broth-dilution method. The class given is functional.
The subject of data set [12] is Cell membrane. The data set is described as follows: Induction of membrane depolarization in Pseudomonas aeruginosa ATCC 27853 assessed as increase in fluorescence intensity at 4 times MIC by DiSC35 dye-based fluorescence assay. It is filed as cell membranes.
Data set [13] deals with Staphylococcus aureus. The data set is described as follows: Antimicrobial activity against methicillin-resistant Staphylococcus aureus 6 assessed as inhibition of visible bacterial growth incubated for 18 hrs by broth-dilution method. It is filed as functional.
For data set [14], the system named is Pseudomonas aeruginosa. The data set is described as follows: Antimicrobial activity against multidrug-resistant Pseudomonas aeruginosa 061 assessed as inhibition of visible bacterial growth incubated for 18 hrs by broth-dilution method. It is filed as functional.
For data set [15], the system named is Staphylococcus epidermidis. The data set is described as follows: Antimicrobial activity against Staphylococcus epidermidis ATCC 12228 assessed as inhibition of visible bacterial growth incubated for 18 hrs by broth-dilution method. The class given is functional.
Data set [16] concerns Staphylococcus aureus. The data set is described as follows: Antimicrobial activity against methicillin-resistant Staphylococcus aureus ATCC 33591 assessed as inhibition of visible bacterial growth incubated for 18 hrs by broth-dilution method. It is filed as functional.
In data set [17] the test system is Escherichia coli. The data set is described as follows: Antimicrobial activity against Escherichia coli ATCC 25922 assessed as inhibition of visible bacterial growth incubated for 18 hrs by broth-dilution method. It is filed as functional.
The test system of data set [18] is Pseudomonas aeruginosa. The data set is described as follows: Bactericidal activity against Pseudomonas aeruginosa ATCC 27853 assessed as reduction in viable bacteria at 4 times MIC measured for 30 min by time-kill assay. The class given is functional, organism-based.
The subject of data set [19] is Pseudomonas aeruginosa. The data set is described as follows: Antimicrobial activity against multidrug-resistant Pseudomonas aeruginosa 085 assessed as inhibition of visible bacterial growth incubated for 18 hrs by broth-dilution method. It is filed as functional.
Data set [20] has as its system Pseudomonas aeruginosa. The data set is described as follows: Antimicrobial activity against Pseudomonas aeruginosa ATCC 27853 assessed as inhibition of visible bacterial growth incubated for 18 hrs by broth-dilution method. It is filed as functional.
Data set [21] has as its system Pseudomonas aeruginosa. The data set is described as follows: Antimicrobial activity against multidrug-resistant Pseudomonas aeruginosa 156 assessed as inhibition of visible bacterial growth incubated for 18 hrs by broth-dilution method. It is filed as functional.
Data set [22] concerns Pseudomonas aeruginosa. The data set is described as follows: Antimicrobial activity against multidrug-resistant Pseudomonas aeruginosa 516 assessed as inhibition of visible bacterial growth incubated for 18 hrs by broth-dilution method. The class given is functional.
Data set [23] has as its system Staphylococcus aureus. The data set is described as follows: Drug resistance, ratio of MIC for methicillin-resistant Staphylococcus aureus ATCC 33591 after 20 days exposure to MIC for methicillin-resistant Staphylococcus aureus ATCC 33591 during first exposure. The class given is functional, organism-based. The conditions noted are these: time 20.0 day.
In data set [24] the test system is Staphylococcus aureus. The data set is described as follows: Antimicrobial activity against methicillin-resistant Staphylococcus aureus 2 assessed as inhibition of visible bacterial growth incubated for 18 hrs by broth-dilution method. It is filed as functional.
For data set [25], the system named is Pseudomonas aeruginosa. The data set is described as follows: Antimicrobial activity against multidrug-resistant Pseudomonas aeruginosa 050 assessed as inhibition of visible bacterial growth incubated for 18 hrs by broth-dilution method. It is filed as functional.
Data set [26] relates to Staphylococcus aureus. The data set is described as follows: Antimicrobial activity against Staphylococcus aureus ATCC 25923 assessed as inhibition of visible bacterial growth incubated for 18 hrs by broth-dilution method. The class given is functional.
Data set [27] concerns Staphylococcus aureus. The data set is described as follows: Antimicrobial activity against methicillin-resistant Staphylococcus aureus 3 assessed as inhibition of visible bacterial growth incubated for 18 hrs by broth-dilution method. The class given is functional.
Data set [28] deals with Pseudomonas aeruginosa. The data set is described as follows: Antibacterial activity against Pseudomonas aeruginosa ATCC 27853 infected in C57BL/6 mouse pneumonia model assessed as […] at 5 mg/kg, ip administered for 1 to 48 hrs and measured after 3 days by H and E staining based analysis. It is filed as functional, organism-based. The conditions noted are these: time 1-120 hrs.

Data set [29] relates to Staphylococcus aureus. The data set is described as follows: Antimicrobial activity against methicillin-resistant Staphylococcus aureus 8 assessed as inhibition of visible bacterial growth incubated for 18 hrs by broth-dilution method. It is filed as functional.
The test system of data set [30] is Staphylococcus aureus. The data set is described as follows: Antimicrobial activity against methicillin-resistant Staphylococcus aureus 9 assessed as inhibition of visible bacterial growth incubated for 18 hrs by broth-dilution method. It is filed as functional.
The test system of data set [31] is Staphylococcus aureus. The data set is described as follows: Antimicrobial activity against methicillin-resistant Staphylococcus aureus 5 assessed as inhibition of visible bacterial growth incubated for 18 hrs by broth-dilution method. The class given is functional.
The test system of data set [32] is Staphylococcus aureus. The data set is described as follows: Antimicrobial activity against methicillin-resistant Staphylococcus aureus 10 assessed as inhibition of visible bacterial growth incubated for 18 hrs by broth-dilution method. It is filed as functional.
The subject of data set [33] is Pseudomonas aeruginosa. The data set is described as follows: Antimicrobial activity against multidrug-resistant Pseudomonas aeruginosa 157 assessed as inhibition of visible bacterial growth incubated for 18 hrs by broth-dilution method. It is filed as functional.
For data set [34], the system named is Staphylococcus aureus. The data set is described as follows: Antimicrobial activity against methicillin-resistant Staphylococcus aureus 7 assessed as inhibition of visible bacterial growth incubated for 18 hrs by broth-dilution method. It is filed as functional.
Data set [35] concerns Cell membrane. The data set is described as follows: Induction of cytoplasmic membrane depolarization in methicillin-resistant Staphylococcus aureus ATCC 33591 assessed as increase in fluorescence intensity at 4 times MIC by DiSC35 dye-based fluorescence assay.

Calls of active or inactive are those of the source.

As for POLYMYXIN B [listing 1 of 2 here], in data set [1], the Activity entry is “Toxic”.

Consider POLYMYXIN B [listing 2 of 2 here], for which the MIC in data set [2] is 2 µg/mL; in [3] it was 1 µg/mL; in [4] it was 8 µg/mL; in data set [5], 1 µg/mL; in data set [6], 16 µg/mL; in data set [7], 8 µg/mL. Besides, the minimal inhibitory concentration (MIC) in data set [8] stood at 1 µg/mL; in data set [9] it was 1 µg/mL; in [11] it was 4 µg/mL; in [13], 8 µg/mL; in [14], 1 µg/mL; in data set [15], 8 µg/mL. Further, the MIC was 16 µg/mL in data set [16]; 1 µg/mL in data set [17]; 1 µg/mL in [19]; 1 µg/mL in data set [20]; 256 µg/mL in data set [21]; 1 µg/mL in data set [22]. Further, the minimal inhibitory concentration (MIC) worked out at 8 µg/mL in data set [24]; 1 µg/mL in [25]; 8 µg/mL in [26]; 8 µg/mL in data set [27]; 16 µg/mL in [29]; 16 µg/mL in data set [30]. The MIC was determined as 16 µg/mL in data set [31], 16 µg/mL in data set [32], 1 µg/mL in [33] and 16 µg/mL in [34]. Further, the log(activity) in data set [10] stood at 4.54. Further, the result in data set [12], in [28] and in [35] was inactive. For the same sequence, the outcome in [18] was Active. The Ratio in data set [23] turned out to be 8.

In general, MIC refers to the smallest concentration in the dilution series that meets the test's criterion for growth inhibition.
